# Results reported in ChEMBL document CHEMBL3885881, “DrugMatrix”.
# Species on record: Rattus norvegicus
# Assay: DrugMatrix - Regimen: Daily Repeat
# Assay type: toxicity, organism-based, Sprague-Dawley
# Design: regimen Daily Repeat, gender Male, age 6-8 weeks
# Settings: in vivo, sc, route subcutaneous, […]
# [1] = 0 mg/kg, 72 h, tissue Blood, dose level Control, time 3 day
# [2] = 0 mg/kg, 72 h, tissue Plasma, dose level Control, time 3 day
# [3] = 0 mg/kg, 120 h, tissue Blood, dose level Control, time 5 day
# [4] = 0 mg/kg, 120 h, tissue Plasma, dose level Control, time 5 day
# [5] = 10 mg/kg, 72 h, tissue Blood, dose level Low, time 3 day
# [6] = 10 mg/kg, 72 h, tissue Plasma, dose level Low, time 3 day
# [7] = 10 mg/kg, 120 h, tissue Blood, dose level Low, time 5 day
substance,measurement,setting,value
COBALT(II) ACETYLACETONATE,ABSOLUTE BASOPHIL,[1],0 CELLS/uL
same,ABSOLUTE EOSINOPHIL,[1],42.67 CELLS/uL
same,ABSOLUTE LYMPHOCYTE,[1],10202 CELLS/uL
same,ABSOLUTE MONOCYTE,[1],261.5 CELLS/uL
same,ABSOLUTE SEGMENTED NEUTROPHIL,[1],2193.83 CELLS/uL
same,BASOPHIL,[1],0%
same,EOSINOPHIL,[1],0.33%
same,ERYTHROCYTE COUNT,[1],5.63 x10E6/uL
same,HEMATOCRIT,[1],35.35%
same,HEMOGLOBIN,[1],13.07 G/DL
same,LEUKOCYTE COUNT,[1],12.7 x10E3/uL
same,LYMPHOCYTE,[1],81.17%
same,MEAN CORPUSCULAR HEMOGLOBIN,[1],23.23 pg
same,MEAN CORPUSCULAR HEMOGLOBIN CONCENTRATION,[1],36.97 G/DL
same,MONOCYTE,[1],2%
same,NUCLEATED RED BLOOD CELLS,[1],0 /100WBC
same,PLATELET COUNT,[1],1180.33 x10E3/uL
same,ALANINE AMINOTRANSFERASE,[2],48.67 u/L
same,ALKALINE PHOSPHATASE,[2],360.67 u/L
same,ASPARTATE AMINOTRANSFERASE,[2],85.5 u/L
same,BLOOD UREA NITROGEN,[2],17.83 mg/dL
same,CARBON DIOXIDE,[2],26.17 mmol/L
same,CHOLESTEROL,[2],71 mg/dL
same,CREATINE PHOSPHOKINASE,[2],515.17 u/L
same,CREATININE,[2],0.22 mg/dL
same,GLUCOSE,[2],192.5 mg/dL
same,LACTATE DEHYDROGENASE,[2],214.67 u/L
same,LIPASE,[2],8.5 u/L
same,PHOSPHORUS,[2],12.95 mg/dL
same,POTASSIUM,[2],6.39 MEQ/L
same,TOTAL BILIRUBIN,[2],0.18 mg/dL
same,TOTAL PROTEIN,[2],5.95 G/DL
same,ABSOLUTE BASOPHIL,[3],0 CELLS/uL
same,ABSOLUTE EOSINOPHIL,[3],188.5 CELLS/uL
same,ABSOLUTE LYMPHOCYTE,[3],12360.83 CELLS/uL
same,ABSOLUTE MONOCYTE,[3],64.33 CELLS/uL
same,ABSOLUTE SEGMENTED NEUTROPHIL,[3],1986.33 CELLS/uL
same,BASOPHIL,[3],0%
same,ERYTHROCYTE COUNT,[3],5.52 x10E6/uL
same,HEMOGLOBIN,[3],13.25 G/DL
same,LEUKOCYTE COUNT,[3],14.6 x10E3/uL
same,LYMPHOCYTE,[3],84.5%
same,MEAN CORPUSCULAR HEMOGLOBIN,[3],24.05 pg
same,MEAN CORPUSCULAR HEMOGLOBIN CONCENTRATION,[3],36.98 G/DL
same,MEAN CORPUSCULAR VOLUME,[3],64.97 fL
same,MONOCYTE,[3],0.5%
same,NEUTROPHIL,[3],13.67%
same,NUCLEATED RED BLOOD CELLS,[3],0 /100WBC
same,PLATELET COUNT,[3],1297.83 x10E3/uL
same,ALANINE AMINOTRANSFERASE,[4],51.17 u/L
same,ALKALINE PHOSPHATASE,[4],393.17 u/L
same,ASPARTATE AMINOTRANSFERASE,[4],111 u/L
same,BLOOD UREA NITROGEN,[4],18.17 mg/dL
same,CARBON DIOXIDE,[4],25 mmol/L
same,CHOLESTEROL,[4],65.5 mg/dL
same,CREATINE PHOSPHOKINASE,[4],911.5 u/L
same,CREATININE,[4],0.21 mg/dL
same,GLUCOSE,[4],183 mg/dL
same,LACTATE DEHYDROGENASE,[4],189 u/L
same,LIPASE,[4],8.33 u/L
same,PHOSPHORUS,[4],12.78 mg/dL
same,POTASSIUM,[4],6.05 MEQ/L
same,TOTAL BILIRUBIN,[4],0.25 mg/dL
same,TOTAL PROTEIN,[4],5.83 G/DL
same,URIC ACID,[4],1.58 mg/dL
same,ABSOLUTE BASOPHIL,[5],0 CELLS/uL
same,ABSOLUTE EOSINOPHIL,[5],159.33 CELLS/uL
same,ABSOLUTE MONOCYTE,[5],0 CELLS/uL
same,ABSOLUTE SEGMENTED NEUTROPHIL,[5],812 CELLS/uL
same,BASOPHIL,[5],0%
same,ERYTHROCYTE COUNT,[5],5.08 x10E6/uL
same,HEMATOCRIT,[5],32.57%
same,HEMOGLOBIN,[5],12.17 G/DL
same,LEUKOCYTE COUNT,[5],12.37 x10E3/uL
same,LYMPHOCYTE,[5],92%
same,MEAN CORPUSCULAR HEMOGLOBIN,[5],23.97 pg
same,MEAN CORPUSCULAR HEMOGLOBIN CONCENTRATION,[5],37.37 G/DL
same,MONOCYTE,[5],0%
same,NEUTROPHIL,[5],6.67%
same,NUCLEATED RED BLOOD CELLS,[5],0 /100WBC
same,PLATELET COUNT,[5],1184.33 x10E3/uL
same,ALANINE AMINOTRANSFERASE,[6],47.67 u/L
same,ALKALINE PHOSPHATASE,[6],375.67 u/L
same,ASPARTATE AMINOTRANSFERASE,[6],80 u/L
same,CARBON DIOXIDE,[6],27 mmol/L
same,CHOLESTEROL,[6],76 mg/dL
same,CREATINE PHOSPHOKINASE,[6],254.67 u/L
same,CREATININE,[6],0.19 mg/dL
same,GLUCOSE,[6],171.67 mg/dL
same,LACTATE DEHYDROGENASE,[6],104.33 u/L
same,LIPASE,[6],8.33 u/L
same,PHOSPHORUS,[6],11.6 mg/dL
same,TOTAL BILIRUBIN,[6],0.13 mg/dL
same,TOTAL PROTEIN,[6],5.73 G/DL
same,ABSOLUTE BASOPHIL,[7],0 CELLS/uL
same,ABSOLUTE EOSINOPHIL,[7],119 CELLS/uL
